What was measured:
Assay type in all cases: cell-based
Settings in all cases: 24 h
MCF-7 = assay: MTT cytotoxicity test, MCF-7
Text: (§1) In this test, […] present in the cells converts the soluble tetrazolium salt (3-4,5-dimethylthiazol-2-yl)-2,5-diphenyltetrazolium bromide) into a reduced form. The reaction yields water-insoluble purple crystalline formazan. The number of crystals formed depends on the enzyme activity so that it is directly proportional to the number of viable cells in the sample. Spectrophotometric measurement requires the use of an organic solvent to dissolve the crystals obtained (isopropanol). The change in colour intensity is measured by spectrophotometry at 570 nm wavelength. The test was performed for a number of dilutions (9) of nanoparticle solutions containing the tested anthracycline. The baseline concentration of nanoparticles for MTT tests was 2.5 mg of nanoparticles/ml. […] The study was also performed for drug-free nanoparticles (the carrier itself was obtained similarly to the nanoparticles with the drug). Cells not exposed to toxic substances were used as a control for toxicity studies.
(§2) After reaching 85-90% confluence, the cells were trypsinised using a 0.25% trypsin solution. The cells were then centrifuged (1200 rpm, 5 min.) and suspended in a culture medium suitable for a particular cell line. […] The cells were plated at a concentration of 1000 cells/100 μl of medium per culture well (96-well plates). The prepared plates were incubated (37° C./5% CO2/22 h to 26 h). Subsequently, the culture medium was replaced with a fresh one (100 μl) containing the appropriate concentration of the tested nanoparticles and set aside for 24 h (37° C./5% CO2). After the lapse of the test time, the medium was removed and replaced with 50 μl of an MTT reagent solution at a concentration of 1 mg/ml. The plate was incubated for 2 hours (37° C./5% CO2). Subsequently, the MTT solution was removed, and 100 μl of isopropanol was added. […] The mean value of absorbance read OD570 of the cells not exposed to a toxic agent (control) should be above 0.7 [see literature item 206].
(§3) A decrease in the number of viable cells causes a decrease in metabolic activity in the sample. This reduction directly correlates with the amount of blue and purple formazan formed, monitored basing on the optical density at 570 nm. The following equation (C.1) is used to calculate viability reduction compared to control:
(§4) where: • OD570e is the mean value of the measured absorbance of the test samples; • OD570b is the mean value of the measured absorbance of the control.
(§5) The results obtained were statistically analysed using the Dixon Q test.

COLO 205 = assay: MTT cytotoxicity test, COLO 205
Text: as §1, §2, §3, §4, §5

A2780 = assay: MTT cytotoxicity test, A2780
Text: as §1, §2, §3, §4, §5

PANC-1 = assay: MTT cytotoxicity test, PANC-1
Text: as §1, §2, §3, §4, §5

ACHN = assay: MTT cytotoxicity test, ACHN
Text: as §1, §2, §3, §4, §5

OVCAR-3 = assay: MTT cytotoxicity test, OVCAR-3
Text: as §1, §2, §3, §4, §5

A549 = assay: MTT cytotoxicity test, A549
Text: as §1, §2, §3, §4, §5

Structure (SMILES): COc1cccc2c1C(=O)c1c(O)c3c(c(O)c1C2=O)C[C@@](O)(C(C)=O)C[C@@H]3O[C@H]1C[C@H](N)[C@H](O)[C@H](C)O1 [Dau, daunorubicin]
- Average viability (MCF-7; MCF-7, 1.25E+04 ng/ml NPs (pure drug equimolar)): 1.153%
- Average viability (MCF-7; MCF-7, 1.25E+05 ng/ml NPs (pure drug equimolar)): 17.162%
- Average viability (MCF-7; MCF-7, 1.25E+06 ng/ml NPs (pure drug equimolar)): 40.867%
- Average viability (MCF-7; MCF-7, 2.50E+04 ng/ml NPs (pure drug equimolar)): 1.072%
- Average viability (MCF-7; MCF-7, 2.50E+05 ng/ml NPs (pure drug equimolar)): 23.086%
- Average viability (MCF-7; MCF-7, 2.50E+06 ng/ml NPs (pure drug equimolar)): 69.450%
- Average viability (MCF-7; MCF-7, 5.00E+03 ng/ml NPs (pure drug equimolar)): 1.311%
- Average viability (MCF-7; MCF-7, 5.00E+04 ng/ml NPs (pure drug equimolar)): 4.421%
- Average viability (MCF-7; MCF-7, 5.00E+05 ng/ml NPs (pure drug equimolar)): 25.325%
- Average viability (COLO 205; Colo205, 1.25E+04 ng/ml NPs (pure drug equimolar)): 34.20%
- Average viability (COLO 205; Colo205, 1.25E+05 ng/ml NPs (pure drug equimolar)): 3.75%
- Average viability (COLO 205; Colo205, 1.25E+06 ng/ml NPs (pure drug equimolar)): 5.07%
- Average viability (COLO 205; Colo205, 2.50E+04 ng/ml NPs (pure drug equimolar)): 19.17%
- Average viability (COLO 205; Colo205, 2.50E+05 ng/ml NPs (pure drug equimolar)): 3.47%
- Average viability (COLO 205; Colo205, 2.50E+06 ng/ml NPs (pure drug equimolar)): 30.89%
- Average viability (COLO 205; Colo205, 5.00E+03 ng/ml NPs (pure drug equimolar)): 30.89%
- Average viability (COLO 205; Colo205, 5.00E+04 ng/ml NPs (pure drug equimolar)): 4.46%
- Average viability (COLO 205; Colo205, 5.00E+05 ng/ml NPs (pure drug equimolar)): 2.93%
- Average viability (A2780; A2780, 1.25E+04 ng/ml NPs (pure drug equimolar)): 0.540%
- Average viability (A2780; A2780, 1.25E+05 ng/ml NPs (pure drug equimolar)): 18.312%
- Average viability (A2780; A2780, 1.25E+06 ng/ml NPs (pure drug equimolar)): 60.422%
- Average viability (A2780; A2780, 2.50E+04 ng/ml NPs (pure drug equimolar)): 3.689%
- Average viability (A2780; A2780, 2.50E+05 ng/ml NPs (pure drug equimolar)): 35.542%
- Average viability (A2780; A2780, 2.50E+06 ng/ml NPs (pure drug equimolar)): 54.259%
- Average viability (A2780; A2780, 5.00E+03 ng/ml NPs (pure drug equimolar)): 0.295%
- Average viability (A2780; A2780, 5.00E+04 ng/ml NPs (pure drug equimolar)): 11.600%
- Average viability (A2780; A2780, 5.00E+05 ng/ml NPs (pure drug equimolar)): 60.621%
- Average viability (PANC-1; PANC1, 1.25E+05 ng/ml NPs (pure drug equimolar)): 48.79%
- Average viability (PANC-1; PANC1, 1.25E+06 ng/ml NPs (pure drug equimolar)): 1.02%
- Average viability (PANC-1; PANC1, 2.50E+04 ng/ml NPs (pure drug equimolar)): 61.24%
- Average viability (PANC-1; PANC1, 2.50E+05 ng/ml NPs (pure drug equimolar)): 33.21%
- Average viability (PANC-1; PANC1, 2.50E+06 ng/ml NPs (pure drug equimolar)): 95.12%
- Average viability (PANC-1; PANC1, 5.00E+03 ng/ml NPs (pure drug equimolar)): 95.12%
- Average viability (PANC-1; PANC1, 5.00E+04 ng/ml NPs (pure drug equimolar)): 56.67%
- Average viability (PANC-1; PANC1, 5.00E+05 ng/ml NPs (pure drug equimolar)): 0.54%
- Average viability (ACHN; 1.25E+04 ng/ml NPs (pure drug equimolar)): 43.86%
- Average viability (ACHN; 1.25E+05 ng/ml NPs (pure drug equimolar)): 2.75%
- Average viability (ACHN; 1.25E+06 ng/ml NPs (pure drug equimolar)): 5.35%
- Average viability (ACHN; 2.50E+04 ng/ml NPs (pure drug equimolar)): 1.60%
- Average viability (ACHN; 2.50E+05 ng/ml NPs (pure drug equimolar)): 2.24%
- Average viability (ACHN; 5.00E+04 ng/ml NPs (pure drug equimolar)): 2.88%
- Average viability (ACHN; 5.00E+05 ng/ml NPs (pure drug equimolar)): 3.02%
- Average viability (OVCAR-3; OVCAR3, 1.25E+04 ng/ml NPs (pure drug equimolar)): 3.616%
- Average viability (OVCAR-3; OVCAR3, 1.25E+05 ng/ml NPs (pure drug equimolar)): 59.635%
- Average viability (OVCAR-3; OVCAR3, 1.25E+06 ng/ml NPs (pure drug equimolar)): 94.253%
- Average viability (OVCAR-3; OVCAR3, 2.50E+04 ng/ml NPs (pure drug equimolar)): 43.386%
- Average viability (OVCAR-3; OVCAR3, 2.50E+05 ng/ml NPs (pure drug equimolar)): 71.147%
- Average viability (OVCAR-3; OVCAR3, 2.50E+06 ng/ml NPs (pure drug equimolar)): 99.822%
- Average viability (OVCAR-3; OVCAR3, 5.00E+03 ng/ml NPs (pure drug equimolar)): 1.330%
- Average viability (OVCAR-3; OVCAR3, 5.00E+04 ng/ml NPs (pure drug equimolar)): 52.550%
- Average viability (OVCAR-3; OVCAR3, 5.00E+05 ng/ml NPs (pure drug equimolar)): 120.518%
- Average viability (A549; A549, 1.25E+04 ng/ml NPs (pure drug equimolar)): 57.00%
- Average viability (A549; A549, 1.25E+05 ng/ml NPs (pure drug equimolar)): 49.55%
- Average viability (A549; A549, 1.25E+06 ng/ml NPs (pure drug equimolar)): 0.53%
- Average viability (A549; A549, 2.50E+04 ng/ml NPs (pure drug equimolar)): 55.31%
- Average viability (A549; A549, 2.50E+05 ng/ml NPs (pure drug equimolar)): 52.82%
- Average viability (A549; A549, 2.50E+06 ng/ml NPs (pure drug equimolar)): 65.72%
- Average viability (A549; A549, 5.00E+03 ng/ml NPs (pure drug equimolar)): 65.72%
- Average viability (A549; A549, 5.00E+04 ng/ml NPs (pure drug equimolar)): 50.80%
- Average viability (A549; A549, 5.00E+05 ng/ml NPs (pure drug equimolar)): 0.60%

— US20210052616A1, “ANTHRACYCLINE ENCAPSULATED WITH A POLYSACCHARIDE FOR USE IN THE TREATMENT OF TUMOURS” (NANOVELOS S.A, priority 2018, published 2021)
